Measured values reported in the supplement of paper PMC10307832.

What was measured:
Test in all cases: relative viability (nuclei count vs DMSO), 5 days (fraction); higher = more cells survive
[1] = compound: Cc1ccc(C(=O)N(CCCN)[C@@H](c2nc3cc(Cl)ccc3c(=O)n2Cc2ccccc2)C(C)C)cc1 [Ispinesib] + CC1(C)CCC(c2ccc(Cl)cc2)=C(CN2CCN(c3ccc(C(=O)NS(=O)(=O)c4ccc(N[C@H](CCN5CCOCC5)CSc5ccccc5)c(S(=O)(=O)C(F)(F)F)c4)cc3)CC2)C1 [Navitoclax] (partner 0.5 µM)
Procedure, shortened: (§1)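 Relative viability divides the nuclei count in treated wells by that in vehicle wells. Lung cancer cell lines were seeded in 1536-well plates, dosed by pin tool the next day, and fixed and stained after 5 days in one step with final 0.05% Triton X-100, 1% formaldehyde and 1 ug/ml Hoechst. Dosing was a single drug or a fixed anchor-drug dose plus five library-drug doses (not always all listed) in √10 steps, and values are medians of duplicate plates imaged at 4×.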

[2] = compound: Cc1ccc(C(=O)N(CCCN)[C@@H](c2nc3cc(Cl)ccc3c(=O)n2Cc2ccccc2)C(C)C)cc1 [Ispinesib] + C[C@]1(O)C[C@@H](c2nc(-c3ccc4ccc(-c5ccccc5)nc4c3)c3c(N)nccn32)C1 [Linsitinib] (partner 1 µM)
Procedure, shortened: as §1

[3] = compound: Cc1ccc(C(=O)N(CCCN)[C@@H](c2nc3cc(Cl)ccc3c(=O)n2Cc2ccccc2)C(C)C)cc1 [Ispinesib] + Cc1nc(Nc2ncc(C(=O)Nc3c(C)cccc3Cl)s2)cc(N2CCN(CCO)CC2)n1 [Dasatinib] (partner 0.075 µM)
Procedure, shortened: as §1

[4] = compound: Cc1ccc(C(=O)N(CCCN)[C@@H](c2nc3cc(Cl)ccc3c(=O)n2Cc2ccccc2)C(C)C)cc1 [Ispinesib] + N=C(N)NC(=N)NCCc1ccccc1 [Phenformin] (partner 250 µM)
Procedure, shortened: as §1

| Cell Line | relative viability ([1]; first compound 0.001 µM) | relative viability ([1]; first compound 0.003162 µM) | relative viability ([1]; first compound 0.01 µM) | relative viability ([1]; first compound 0.03162 µM) | relative viability ([1]; first compound 0.1 µM) | relative viability ([2]; first compound 0.001 µM) | relative viability ([2]; first compound 0.003162 µM) | relative viability ([2]; first compound 0.01 µM) | relative viability ([2]; first compound 0.03162 µM) | relative viability ([2]; first compound 0.1 µM) | relative viability ([3]; first compound 0.001 µM) | relative viability ([3]; first compound 0.003162 µM) | relative viability ([3]; first compound 0.01 µM) | relative viability ([3]; first compound 0.03162 µM) | relative viability ([3]; first compound 0.1 µM) | relative viability ([4]; first compound 0.001 µM) | relative viability ([4]; first compound 0.003162 µM) | relative viability ([4]; first compound 0.01 µM) | relative viability ([4]; first compound 0.03162 µM) | relative viability ([4]; first compound 0.1 µM) |
| --- | --- | --- | --- | --- | --- | --- | --- | --- | --- | --- | --- | --- | --- | --- | --- | --- | --- | --- | --- | --- |
| NCI-H2405 | 0.884 | 0.72 | 0.942 | 0.779 | 0.276 | 0.974 | 0.755 | 0.968 | 0.783 | 0.435 | 0.208 | 0.223 | 0.656 | 0.184 | 0.247 | 0.41 | 0.408 | 0.705 | 0.361 | 0.289 |
| NCI-H1666 | 0.987 | 0.876 | 0.945 | 0.527 | 0.25 | 1.05 | 0.907 | 0.833 | 0.767 | 0.408 | 0.864 | 0.894 | 0.776 | 0.594 | 0.419 | 0.524 | 0.6 | 0.541 | 0.475 | 0.343 |
| H3255 | 0.562 | 0.541 | 0.46 | 0.344 | 0.217 | 0.919 | 1.19 | 1.06 | 0.785 | 0.292 | 0.316 | 0.419 | 0.357 | 0.307 | 0.244 | 0.347 | 0.37 | 0.333 | 0.259 | 0.259 |
| NCI-H2347 | 0.819 | 0.727 | 0.967 | 0.762 | 0.609 | 1.01 | 1.04 | 1.13 | 0.805 | 0.913 | 0.285 | 0.209 | 0.289 | 0.284 | 0.282 | 0.404 | 0.547 | 0.414 | 0.553 | 0.386 |
| LK-2 | 0.93 | 0.808 | 1.01 | 0.661 | 0.298 | 0.805 | 0.328 | 0.521 | 0.435 | 0.267 | 0.227 | 0.331 | 0.299 | 0.26 | 0.199 | 0.377 | 0.475 | 0.4 | 0.318 | 0.291 |
| HCC-15 | 0.792 | 0.82 | 0.848 | 0.665 | 0.401 | 0.998 | 1.06 | 1.06 | 0.663 | 0.415 | 0.711 | 0.662 | 0.604 | 0.371 | 0.21 | 0.567 | 0.48 | 0.487 | 0.19 | 0.184 |
| SW 1573 | 1.22 | 1 | 1.21 | 0.915 | 0.17 | 0.934 | 0.743 | 0.983 | 0.801 | 0.453 | 0.529 | 0.426 | 0.721 | 0.122 | 0.153 | 0.373 | 0.369 | 0.426 | 0.145 | 0.141 |
| NCI-H838 | 1.33 | 1.23 | 1.37 | 0.994 | 0.25 | 1.09 | 1.17 | 1.29 | 0.92 | 0.256 | 0.325 | 0.335 | 0.29 | 0.242 | 0.182 | 0.649 | 0.605 | 0.827 | 0.194 | 0.163 |
